Experimental data from patent publication US5393729A, “3-aryl-pyrone derivatives” (Bayer Aktiengesellschaft, priority 1992, dated 1995).
Like-named read-outs stand apart in the source and are kept apart here.

Experiments:
[1] = system: Echinochloa; assay: Pre-emergence test, Echinochloa; assay type: in vivo; settings: 504 h, after three weeks, 0%=no action, 100%=total destruction, read-out: % Activity (damage to the plants)
Procedure: (§1) Solvent: 5 parts by weight of acetone
(§2) Emulsifier: 1 part by weight of alkylaryl polyglycol ether
(§3) To produce a suitable preparation of active compound, 1 part by weight of active compound is mixed with the stated amount of solvent, the stated amount of emulsifier is added and the concentrate is diluted with water to the desired concentration.
(§4) Seeds of the test plants are sown in normal soil and, after 24 hours, watered with the preparation of the active compound. It is expedient to keep constant the amount of water per unit area. The concentration of the active compound in the preparation is of no importance, only the amount of active compound applied per unit area being decisive. After three weeks, the degree of damage to the plants is rated in % damage in comparison to the development of the untreated control. The figures denote:
(§5) 0%=no action (like untreated control)
(§6) In this test, the following results were obtained at an exemplary application rate of 500 g/ha, the active compounds being tolerated well to very well by soya beans: […]

[2] = system: Setaria; assay: Pre-emergence test, Setaria; assay type: in vivo; settings: 504 h, after three weeks, 0%=no action, 100%=total destruction, read-out: % Activity (damage to the plants)
Procedure: as §1, §2, §3, §4, §5, §6

[3] = system: Digitaria; assay: Pre-emergence test, Digitaria; assay type: in vivo; settings: 504 h, after three weeks, 0%=no action, 100%=total destruction, read-out: % Activity (damage to the plants)
Procedure: as §1, §2, §3, §4, §5, §6

[4] = system: larvae of the green rice cicada (Nephotettix cincticeps); assay: whole plant or invertebrate; assay type: in vivo; settings: 144 h, read-out: destruction of cicadas
Procedure: (§7) Solvent: 7 parts by weight of dimethylformamide
as §2
(§8) To produce a suitable preparation of active compound, 1 part by weight of active compound is mixed with the stated amount of solvent and the stated amount of emulsifier, and the concentrate is diluted with water to the desired concentration.
Rice seedlings (Oryza satira) are treated by being dipped into the preparation of active compound of the desired concentration and are infested with larvae of the green rice cicada (Nephotettix cincticeps) while the seedlings are still moist.
After the specified period of time, the destruction in % is determined. 100% means that all the cicadas have been killed; 0% means that none of the cicadas have been killed.

[5] = system: Panicum; assay: Pre-emergence test, Panicum; assay type: in vivo; settings: 504 h, after three weeks, 0%=no action, 100%=total destruction, read-out: % Activity (damage to the plants)
Procedure: as §1, §2, §3, §4, §5, §6

[6] = system: caterpillars of the diamond-back moth (Plutella maculipennis); assay: whole plant or invertebrate; assay type: in vivo; settings: in Brassica oleracea, 168 h, read-out: destruction of caterpillars
Procedure: as §7, §2, §8
Cabbage leaves (Brassica oleracea) are treated by being dipped into the preparation of active compound of the desired concentration and are infested with caterpillars of the diamond-back moth (Plutella maculipennis) while the leaves are still moist.
After the specified periods of time, the destruction in % is determined. 100% means that all the caterpillars have been killed; 0% means that none of the caterpillars have been killed.

[7] = system: mustard beetle larvae (Phaedon cochleariae); assay: Phaedon larvae test; assay type: in vivo; settings: 168 h, after 7 days, active compound concentration 0.1%, cabbage leaves dipped, read-out: destruction of beetle larvae
Procedure: as §7, §2, §8
After the specified periods of time, the destruction in % is determined. 100% means that all the beetle larvae have been killed; 0% means that none of the beetle larvae have been killed.

[8] = system: Trichinella spiralis; assay: Trichinella spiralis in vitro; settings: 120 h, 5 days at 19° C., read-out: destruction (very good action)
Procedure: Trichinella spiralis in vitro
Trichina larvae are isolated from the muscles of mice and washed with 0.9% NaCl supplemented with 20 μg/ml sisomycin and 2 μg/ml of clotrimazole. The actual incubation for approximately 20 trichinas per measurement was effected in 2 ml of a solution consisting of 10 g Bacto Casitone, 5 g of yeast (yeast extract), 2.5 g of glucose, 0.4 g of KH2 PO4, 0.4 g of K2 HPO4 per 500 ml, pH 7.2, containing 10 μg/ml of sisomycin and […] of clotrimazole. 10 mg of the substance to be tested are dissolved in 0.5 ml of DMSO, and such an amount is added to the incubation medium that the end concentrations are 100, 10 and 1 μg/ml. After incubation for 5 days at 19° C., the test is evaluated. The following key is used for the evaluation: 0=no action, the number of live larvae and worms is lower than in the case of the control; 2=good action, dead trichinas can be found; 3=very good action, all trichinas are dead.

[9] = system: common spider mite or greenhouse red spider mite (Tetranychus urticae); assay: Tetranychus test (OP resistant); assay type: in vivo; settings: 168 h, read-out: destruction of spider mites
Procedure: Tetranychus test (OP resistant)
as §7, §2, §8
Bean plants (Phaseolus vulgaris) which are heavily infested with all development stages of the common spider mite or greenhouse red spider mite (Tetranychus urticae) are treated by being dipped into the preparation of active compound of the desired concentration.
After the specified period of time, the destruction in % is determined. 100% means that all the spider mites have been killed; 0% means that none of the spider mites have been killed.

[10] = system: Lucilia cuprina resistant larvae; assay: Test with Lucilia cuprina resistant larvae; assay type: in vivo; settings: after 24 hours, read-out: degree of destruction
Procedure: Test with Lucilia cuprina resistant larvae
Emulsifier: 35 parts by weight of ethylene glycolmonomethyl ether 35 parts by weight of nonylphenol polyglycol ether
To produce a suitable preparation of active compound, three parts by weight of active compound are mixed with seven parts by weight of the abovementioned mixture and the concentrate thus obtained is diluted with water to the particular desired concentration.
About 20 Lucilia cuprina res. larvae are introduced into a test tube which contains approx. 1 cm^3 of horse meat and 0.5 ml of the preparation of active compound. After 24 hours, the degree of destruction is determined.

[11] = system: black bean aphid (Aphis fabae); assay: whole plant or invertebrate; assay type: in vivo; settings: active compound concentration 0.1%, bean plants watered, systemic action, read-out: destruction of aphids
Procedure: Aphis test (systemic action)
as §7, §2, §8
Bean plants (Vicia faba) which are heavily infested with the black bean aphid (Aphis fabae) are each watered with 20 ml of the preparation of the active compound of the desired concentration in such a way that the preparation of active compound penetrates the soil without wetting the shoot. The active compound is taken up by the roots and translocated to the shoot.
After the specified period of time, the destruction in % is determined. 100% means that all the aphids have been killed; 0% means that none of the aphids have been killed.

[12] = after 7 days, active compound concentration 0.01%, OP resistant, bean plants dipped

| SMILES | activity at 500 g/ha [1] [%] | activity at 500 g/ha [2] [%] | activity at 500 g/ha [3] [%] | mortality at 0.1 % [4] [%] | activity at 500 g/ha [5] [%] | further results |
| --- | --- | --- | --- | --- | --- | --- |
| Cc1cc(C)c(-c2c(O)c3c(oc2=O)CCC3)c(C)c1 [Example 69] | 70 to 100 | 70 to 100 | 90 to 100 | 100 | 95 to 100 |  |
| Cc1cc(C)c(-c2c(O)cc(-c3ccc(F)cc3)oc2=O)c(C)c1 [Example 52] | 70 to 100 | 70 to 100 | 90 to 100 | 100 | 95 to 100 | mortality at 0.1 % [6]: 100% |
| Cc1cc(C)c(-c2c(O)cc(-c3c(C)cc(C)nc3C)oc2=O)c(C)c1 [Example 65] |  |  |  | 100 |  | mortality at 0.1 % [7]: 100% |
| Cc1cc(C)c(-c2c(O)cc(-c3ccc(Cl)s3)oc2=O)c(C)c1 [Example 61] |  |  |  |  |  | mortality at 0.1 % [6]: 100% |
| CCc1c(C)oc(=O)c(-c2c(C)cc(C)cc2C)c1O [Example 35] |  | 70 to 100 | 90 to 100 | 100 | 95 to 100 |  |
| Cc1cc(C)c(-c2c(O)cc(-c3ccco3)oc2=O)c(C)c1 [Example 56] | 70 to 100 | 70 to 100 |  | 100 | 95 to 100 | killing at 100 ppm [8]: 100% |
| CCOC(=O)c1c(-c2ccc([N+](=O)[O-])cc2)oc(=O)c(-c2c(C)cc(C)cc2C)c1O [Example 15] |  |  |  |  |  | killing at 100 ppm [8]: 100% |
| CC(=O)Oc1c(C)c(C)oc(=O)c1-c1c(C)cc(C)cc1C [Example 81] | 70 to 100 | 70 to 100 | 90 to 100 |  | 95 to 100 | mortality at 0.1 % [6]: 100% |
| Cc1cc(C)c(-c2c(O)cc(-c3cccnc3)oc2=O)c(C)c1 [Example 63] | 70 to 100 | 70 to 100 | 90 to 100 |  | 95 to 100 |  |
| CCOC(=O)Oc1c(C)c(C)oc(=O)c1-c1c(C)cc(C)cc1C [Example 88] |  | 70 to 100 | 90 to 100 |  | 95 to 100 | mortality at 0.1 % [6]: 100%; mortality at 0.01 % [9, 12]: 100% |
| Cc1cc(C)c(-c2c(O)c3c(oc2=O)CCOC3)c(C)c1 [Example 71] |  |  |  | 100 |  |  |
| Cc1cc(C)c(-c2c(O)c3c(oc2=O)CCCC3)c(C)c1 [Example 68] | 70 to 100 | 70 to 100 | 90 to 100 | 100 | 95 to 100 |  |
| Cc1cc(C)c(-c2c(O)c(C(=O)N3CCOCC3)c(C)oc2=O)c(C)c1 [Example 18] |  |  |  |  |  | killing at 100 ppm [8]: 100% |
| CCCc1c(CC)oc(=O)c(-c2c(C)cc(C)cc2C)c1O [Example 37] | 70 to 100 | 70 to 100 |  | 100 | 95 to 100 | killing at 100 ppm [8]: 100% |
| Cc1cc(C)c(-c2c(O)cc(C)oc2=O)c(C)c1 [Example 34] | 70 to 100 | 70 to 100 | 90 to 100 | 100 | 95 to 100 |  |
| Cc1cc(C)c(-c2c(O)cc(-c3cc(Cl)c(Cl)s3)oc2=O)c(C)c1 [Example 60] |  | 70 to 100 | 90 to 100 |  | 95 to 100 |  |

| SMILES | activity at 500 g/ha [1] [%] | activity at 500 g/ha [2] [%] | activity at 500 g/ha [3] [%] | mortality at 0.1 % [4] [%] | activity at 500 g/ha [5] [%] | further results |
| --- | --- | --- | --- | --- | --- | --- |
| Cc1cc(C)c(-c2c(O)cc(-c3cccs3)oc2=O)c(C)c1 [Example 58] |  |  |  | 100 |  |  |
| Cc1cc(C)c(-c2c(O)cc(-c3ccccc3F)oc2=O)c(C)c1 [Example 51] |  |  |  | 100 |  |  |
| Cc1cc(C)c(-c2c(O)cc(-c3ccccc3Cl)oc2=O)c(C)c1 [Example 47] |  |  |  |  |  | mortality at 0.1 % [7]: 100% |
| CCOC(=O)Oc1cc(C(C)(C)C)oc(=O)c1-c1c(C)cc(C)cc1C [Example 3, 4-ethoxycarbonyloxy-6-tert.-butyl-3-(2,4,6-trimethylphenyl)pyrone] |  |  |  | 100 |  | mortality at 0.01 % [9]: 100% |
| Cc1cc(C)c(-c2c(OC(=O)C(C)C)cc(C(C)(C)C)oc2=O)c(C)c1 [Example 85] |  |  |  | 100 |  | mortality at 0.01 % [9, 12]: 100% |
| CCOC(=O)c1c(-c2ccccc2F)oc(=O)c(-c2c(C)cc(C)cc2C)c1O [Example 14] |  |  |  |  |  | killing at 100 ppm [8]: 100% |
| Cc1cc(C)c(-c2c(O)c(C(C)C)c(C)oc2=O)c(C)c1 [Example 33] | 70 to 100 | 70 to 100 | 90 to 100 |  | 95 to 100 |  |
| Cc1cc(C)c(-c2c(O)cc(-c3cc(C)sc3C)oc2=O)c(C)c1 [Example 62] |  |  | 90 to 100 | 100 | 95 to 100 |  |
| Cc1cc(C)c(-c2c(O)cc(C(C)(C)C)oc2=O)c(C)c1 [Example 31] | 70 to 100 | 70 to 100 | 90 to 100 | 100 | 95 to 100 | mortality at 0.01 % [9, 12]: 100% |
| Cc1cc(C)c(-c2c(O)cc(-c3ccc(Cl)cc3)oc2=O)c(C)c1 [Example 53] | 70 to 100 | 70 to 100 | 90 to 100 |  | 95 to 100 | mortality at 0.1 % [6]: 100% |
| Cc1cc(C)c(-c2c(O)cc(-c3ccccc3)oc2=O)c(C)c1 [Example 46] | 70 to 100 |  | 90 to 100 |  | 95 to 100 | mortality at 0.1 % [7]: 100%; mortality at 0.1 % [6]: 100%; mortality at 1000 ppm [10]: 100% |
| Cc1cc(C)c(-c2c(O)c(C#N)c(-c3ccccc3Cl)oc2=O)c(C)c1 [Example 13] |  |  |  |  |  | killing at 100 ppm [8]: 100% |
| Cc1cc(C)c(-c2c(O)c(C)c(C)oc2=O)c(C)c1 [Example 32] | 70 to 100 | 70 to 100 | 90 to 100 | 100 | 95 to 100 | mortality at 0.1 % [11]: 100%; mortality at 1000 ppm [10]: 100% |
| CC(=O)Oc1cc(C(C)(C)C)oc(=O)c1-c1c(C)cc(C)cc1C [Example 84] | 70 to 100 | 70 to 100 | 90 to 100 | 100 | 95 to 100 | mortality at 0.01 % [9, 12]: 100% |
| Cc1cc(C)c(-c2c(O)c(C(=O)c3ccccc3)c(C)oc2=O)c(C)c1 [Example 26] |  |  |  |  |  | killing at 100 ppm [8]: 100% |
